Test results published in publication PMC5068747, “Using C. elegans Forward and Reverse Genetics to Identify New Compounds with Anthelmintic Activity” (PLoS Neglected Tropical Diseases, 2016).
pIC50: −log10 of the molar value. Read-outs that look alike come from different tables or passages of the source.

How the values were obtained:
[1] = system: C. elegans mitochondrial complex II (mev-1, sdha-1, sdhb-1, sdhd-1) mutant strains; experiment: Resistance of mitochondrial complex II mutant MMP strains to CID 2747322; type: in vivo, Caenorhabditis elegans
Excerpt: CID 2747322 shares some structural similarity to the WACT-11 compound identified by. […] This led us to examine MMP strains with mutations in the other three mitochondrial complex II subunits; sdha-1, sdhb-1 and sdhd-1, to see if any of these strains are also resistant to CID 2747322. For thirteen strains with sdha-1 missense mutations, three are resistant. For eight strains with sdhb-1 missense mutations, two are resistant. For sdhd-1, one of five MMP strains is resistant (Table 5). To better understand how these different alleles might alter drug effectiveness, we mapped all of these mutations plus gk3613 onto an X-ray resolved protein crystal structure of the mitochondrial complex II of Ascaris suum (PDB: 3VRB) (Fig 3a).

[2] = system: Human embryonic kidney (HEK293) cells; experiment: HEK293 viability, MTT colorimetric assay; type: cell-based; conditions: Homo sapiens, read-out: Mammalian IC50
Protocol: Potential anthelmintic compounds identified from primary screening were further tested against mammalian cells and yeast to determine whether they had deleterious effects in those organisms. Human embryonic kidney (HEK293) cells were grown in Dulbecco’s Modified Eagle’s Medium (DMEM; Sigma) containing 5% fetal bovine serum (FBS; Sigma) in 96-well plates tissue culture plates. Compounds were added 24h post-plating at 10, 30, 100, or 300 μM final concentrations. Dimethyl sulfoxide (DMSO) was used as a negative control at 0.1%. Cells were treated for 24 or 48 hours, after which time viability was assessed using a 3-(4,5-dimethylthiazol-2-yl)-2,5-diphenyltetrazolium bromide (MTT) colorimetric assay. Percent viability was determined by comparing treatment values to DMSO control values.

[3] = system: C. elegans CB3474 (ben-1(e1880), benomyl resistant); experiment: IC50 on benzimidazole resistant C. elegans strain; type: in vivo, Caenorhabditis elegans; conditions: Caenorhabditis elegans, 120 h; 5 days exposure, 2 L4 per well, three biological replicates
[4] = system: C. elegans VC2010 (wild type); experiment: WormScan screen of C. elegans growth, fecundity, motility and mortality; type: in vivo, Caenorhabditis elegans; conditions: Caenorhabditis elegans, 120 h, 5 days exposure
Protocol: All compound libraries were stored in 96-well plates, with 80 drugs per plate (columns 1 and 12 left empty). A BioGrid BG600 pinning robot (Digilab / BioRobotics) was used for compound transfer. The robot uses a 96-pin tool (0.7 mm dia.) to transfer a nominal volume of 340 nL of compound. For retesting, compounds were hand pinned from the original library plates to assay plates using a single 0.7 mm dia. pin. The assay plates were 96-well clear flat-bottom microplates containing 2% χ1666 E.coli bacteria in 0.5X Liquid Nematode Growth Media (LNGM) plus cholesterol (Bacteria were mass-grown in rich media, and harvested by centrifugation to produce a thick paste of bacterial cells that was kept frozen at -20°C. Cells were resuspended at 2% W/V in 0.5X LNGM to produce liquid worm food). Using a COPAS Biosort (Union Biometrica), two L4 to young adult stage VC2010 worms were added to each well of the plate in a final volume of 45 μL. After five days of exposure to the compounds, the plates were scanned and the data analyzed. A five day time period was chosen to be able to observe effects over all stages of the life cycle and through at least one round of replication. The initial proof-of-principle primary screen was performed manually using a dissecting microscope. Phenotypes scored included decreased motility, reduced brood size, and/or death as described previously. For high throughput screening of the Chembridge and Maybridge compound libraries we used the program WormScan, which was adapted for screening 96-well flat-bottom LNGM plates. Using WormScan it was possible to screen four 96-well plates at a time. Plates were scanned twice, at a resolution of 1200 dots per inch, 16-bit grayscale, producing a jpeg image. The light intensity produced by the scanner was sufficient to cause negative phototaxis equivalent to a physical stimulus for mortality determination. The time required to scan four 96-well plates using an Epson Perfection V700 Photo Scanner was less than ten minutes. The time to screen a single plate was less than 1.2 minutes, with less than ten seconds between scans.
WormScan was used to screen for the same phenotypes as in the manual screen (reduced brood size, reduced behavior/motility response and increased mortality). Two sequential scans for each 96-well plate were aligned to a reference region of interest (ROI). Image analysis was based on a difference image score calculated for each ROI. The difference image score (WormScan score) was normalized using a “percent of control” method to derive a normalized WormScan score. […] Wild-type growth in 1% DMSO (Fig 1A) results in a normalized WormScan score of 100. Exposure to 50 nM ivermectin gives a score of 0 (Fig 1C), and complete absence of worms gives a score of 0 (Fig 1D). For the primary screen the WormScan score was calculated using custom macro scripts written for Fiji. For secondary screening and any subsequent studies the WormScan score was calculated using a standalone Java program (See supplemental). Probit regression of mortality was calculated using Mathematica 8.0.

C. briggsae = experiment: Dosage curve on C. briggsae; type: in vivo; conditions: Caenorhabditis briggsae, 120 h; two L4 per well, five days of exposure
Excerpt: Supplementary file pntd.0005058.s004.pdf: S4 Fig Dosage curve for effects on C. briggsae of CID 2747322. Two L4 C. briggsae animals were placed into each well of a 96-well pate for five days of exposure to CID 2747322. […] (PDF) Click here for additional data file.

`COc1ccc(OCCNC(=O)c2ccccc2C(F)(F)F)cc1` [CID 2747322, N-[2-(4-methoxyphenoxy)ethyl]-2-(trifluoromethyl)benzamide] was tested, and the Resistance ([1]; strain VC20295, sdhd-1 A30V) was “none”, the Resistance ([1]; strain VC20401, sdhb-1 S209L) was “resistant” and the Resistance ([1]; strain VC20417, sdha-1 E305K) was “none”. The Resistance ([1]; strain VC20501, mev-1 S178N) was “none”, the Resistance ([1]; strain VC20587, sdhb-1 E294K) was “none” and the Resistance ([1]; strain VC20602, mev-1 G77S) was “resistant”. The Resistance ([1]; strain VC30090, sdha-1 G363E) was “sensitive”, the Resistance ([1]; strain VC30107, sdha-1 S292T) was “sensitive” and the Resistance ([1]; strain VC30120, sdhd-1 L59F) was “none”. The Resistance ([1]; strain VC40073, sdha-1 S142F) was “sensitive”, the Resistance ([1]; strain VC40186, sdhb-1 D192E) was “none” and the Resistance ([1]; strain VC40193, sdhb-1 T285I) was “resistant”. For the same molecule, the Resistance ([1]; strain VC40304, sdha-1 P385S) was “none”, the Resistance ([1]; strain VC40350, sdha-1 V131I) was “none” and the Resistance ([1]; strain VC40364, sdhb-1 N118I) was “sensitive”. The Resistance ([1]; strain VC40386, sdhd-1 A97V) was “resistant”, the Resistance ([1]; strain VC40391, sdha-1 G335E) was “resistant” and the Resistance ([1]; strain VC40423, sdhb-1 I280S) was “sensitive”. For the same molecule, the Resistance ([1]; strain VC40533, sdha-1 R482C) was “resistant”, the Resistance ([1]; strain VC40570, sdhd-1 L120F) was “none” and the Resistance ([1]; strain VC40576, sdha-1 D317N) was “sensitive”. For the same molecule, the Resistance ([1]; strain VC40631, sdha-1 H504Y) was “none”, the Resistance ([1]; strain VC40752, sdhb-1 A34V) was “sensitive” and the Resistance ([1]; strain VC40764, sdha-1 A425V) was “sensitive”. For the same molecule, the Resistance ([1]; strain VC40765, sdhb-1 L197F) was “none”, the Resistance ([1]; strain VC40770, sdha-1 E472K) was “none” and the Resistance ([1]; strain VC40781, mev-1 Y152D) was “resistant”. For the same molecule, the Resistance ([1]; strain VC40799, mev-1 R52C) was “none”, the Resistance ([1]; strain VC40903, sdhd-1 D36N) was “none” and the Resistance ([1]; strain VC40934, mev-1 G88E) was “none”. The Resistance ([1]; strain VC41025, sdha-1 S570F) was “sensitive”, the pIC50 [2] was 3.77 and the pIC50 [3] was 5.40. It also gave a pIC50 ([4]; 2 L4 per well, three biological replicates, read-out: IC50, strain VC2010 (wild type)) of 4.74, a pIC50 ([4]; C. elegans, read-out: Nematode IC50) of 4.74 and a pIC50 (C. briggsae) of 4.80.
